Test results taken from ChEMBL document CHEMBL1201862, “PubChem BioAssay data set” (2004).
Calls of active or inactive are those of the source.

How the values were obtained:
[1] = target: DNA dC->dU-editing enzyme APOBEC-3A (Homo sapiens, UniProt P31941); test: APOBEC3A DNA deaminase inhibitors, dose response, biochemical (AID 504722); assay type: functional
[2] = target: DNA dC->dU-editing enzyme APOBEC-3G (Homo sapiens, UniProt Q9HC16); test: Dose Response confirmation of small molecule APOBEC3G DNA Deaminase Inhibitors via a fluorescence-based single-stranded DNA deaminase assay. [Related pubchem assays (depositor defined):AID493012, AID493028]; assay type: functional
Chain of DNA dC->dU-editing enzyme APOBEC-3G (Q9HC16 whole entry): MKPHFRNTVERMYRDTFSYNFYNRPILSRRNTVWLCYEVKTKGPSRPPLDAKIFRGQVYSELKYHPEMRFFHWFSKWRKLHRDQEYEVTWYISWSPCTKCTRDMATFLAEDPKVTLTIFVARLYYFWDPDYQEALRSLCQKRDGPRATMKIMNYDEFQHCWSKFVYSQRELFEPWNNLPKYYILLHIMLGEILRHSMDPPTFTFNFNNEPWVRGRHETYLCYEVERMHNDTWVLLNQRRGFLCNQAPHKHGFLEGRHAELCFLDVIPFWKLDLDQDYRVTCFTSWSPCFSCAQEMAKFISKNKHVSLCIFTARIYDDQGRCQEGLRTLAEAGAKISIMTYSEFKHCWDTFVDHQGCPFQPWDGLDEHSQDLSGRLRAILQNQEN

[3] = target: Potassium voltage-gated channel subfamily KQT member 2 (Rattus norvegicus, UniProt O88943); test: retigabine-insensitive KCNQ2 potentiators, concentration-response, dose response, cell-based, retigabine-insensitive compounds (AID 2654); assay type: functional
Caspase-3 = target: T1, Caspase-3 (Homo sapiens, UniProt P42574); assay type: functional;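 also: Dose-response selectivity test against caspase-3 for candidate inhibitors of sentrin-specific proteases (SENPs)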
T1 sequence (P42574 whole entry): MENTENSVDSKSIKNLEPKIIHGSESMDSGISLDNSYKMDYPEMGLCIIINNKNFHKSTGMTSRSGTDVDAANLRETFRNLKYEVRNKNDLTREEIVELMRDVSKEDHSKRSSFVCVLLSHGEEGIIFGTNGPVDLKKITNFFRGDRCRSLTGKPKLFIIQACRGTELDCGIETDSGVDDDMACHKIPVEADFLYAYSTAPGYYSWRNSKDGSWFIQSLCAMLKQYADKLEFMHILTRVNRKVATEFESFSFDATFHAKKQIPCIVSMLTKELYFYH

[4] = target: T2, Sentrin-specific protease 7 (Homo sapiens, UniProt Q9BQF6); assay type: functional;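 also: Luminescence-based dose-response confirmation of ultra-high-throughput screening hits, measuring inhibition of SENP7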
T2 sequence (Q9BQF6 whole entry): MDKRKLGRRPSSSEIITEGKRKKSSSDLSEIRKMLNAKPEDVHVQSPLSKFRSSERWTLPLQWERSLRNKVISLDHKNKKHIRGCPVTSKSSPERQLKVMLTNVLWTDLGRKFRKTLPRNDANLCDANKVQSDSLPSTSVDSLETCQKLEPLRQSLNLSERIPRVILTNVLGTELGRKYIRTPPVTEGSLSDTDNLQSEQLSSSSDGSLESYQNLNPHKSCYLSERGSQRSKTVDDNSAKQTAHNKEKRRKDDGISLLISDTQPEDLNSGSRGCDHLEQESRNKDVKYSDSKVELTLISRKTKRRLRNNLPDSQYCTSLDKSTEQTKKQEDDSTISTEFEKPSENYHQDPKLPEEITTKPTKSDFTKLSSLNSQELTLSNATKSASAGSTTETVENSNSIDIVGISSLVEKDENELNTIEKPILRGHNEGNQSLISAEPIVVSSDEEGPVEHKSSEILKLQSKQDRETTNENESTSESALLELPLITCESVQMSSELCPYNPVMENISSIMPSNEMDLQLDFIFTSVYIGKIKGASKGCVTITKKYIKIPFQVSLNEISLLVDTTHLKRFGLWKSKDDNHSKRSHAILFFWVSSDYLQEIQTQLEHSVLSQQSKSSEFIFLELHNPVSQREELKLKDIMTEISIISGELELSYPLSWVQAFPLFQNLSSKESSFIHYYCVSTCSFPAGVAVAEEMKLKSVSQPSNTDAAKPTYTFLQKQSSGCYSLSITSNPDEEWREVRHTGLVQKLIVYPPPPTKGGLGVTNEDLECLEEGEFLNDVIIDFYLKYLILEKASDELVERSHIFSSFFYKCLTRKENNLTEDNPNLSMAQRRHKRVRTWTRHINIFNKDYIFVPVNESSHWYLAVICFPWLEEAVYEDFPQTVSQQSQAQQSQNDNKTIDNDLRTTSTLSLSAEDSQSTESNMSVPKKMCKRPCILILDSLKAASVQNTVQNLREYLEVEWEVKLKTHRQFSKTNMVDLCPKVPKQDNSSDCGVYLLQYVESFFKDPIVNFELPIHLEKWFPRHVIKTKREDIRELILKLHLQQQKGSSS

[5] = target: T3, Sentrin-specific protease 6 (Homo sapiens, UniProt Q9GZR1); assay type: functional;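 also: Luminescence-based dose-response confirmatory assay of SENP6 inhibition, following up an ultra-high-throughput screen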
T3 sequence (Q9GZR1 whole entry): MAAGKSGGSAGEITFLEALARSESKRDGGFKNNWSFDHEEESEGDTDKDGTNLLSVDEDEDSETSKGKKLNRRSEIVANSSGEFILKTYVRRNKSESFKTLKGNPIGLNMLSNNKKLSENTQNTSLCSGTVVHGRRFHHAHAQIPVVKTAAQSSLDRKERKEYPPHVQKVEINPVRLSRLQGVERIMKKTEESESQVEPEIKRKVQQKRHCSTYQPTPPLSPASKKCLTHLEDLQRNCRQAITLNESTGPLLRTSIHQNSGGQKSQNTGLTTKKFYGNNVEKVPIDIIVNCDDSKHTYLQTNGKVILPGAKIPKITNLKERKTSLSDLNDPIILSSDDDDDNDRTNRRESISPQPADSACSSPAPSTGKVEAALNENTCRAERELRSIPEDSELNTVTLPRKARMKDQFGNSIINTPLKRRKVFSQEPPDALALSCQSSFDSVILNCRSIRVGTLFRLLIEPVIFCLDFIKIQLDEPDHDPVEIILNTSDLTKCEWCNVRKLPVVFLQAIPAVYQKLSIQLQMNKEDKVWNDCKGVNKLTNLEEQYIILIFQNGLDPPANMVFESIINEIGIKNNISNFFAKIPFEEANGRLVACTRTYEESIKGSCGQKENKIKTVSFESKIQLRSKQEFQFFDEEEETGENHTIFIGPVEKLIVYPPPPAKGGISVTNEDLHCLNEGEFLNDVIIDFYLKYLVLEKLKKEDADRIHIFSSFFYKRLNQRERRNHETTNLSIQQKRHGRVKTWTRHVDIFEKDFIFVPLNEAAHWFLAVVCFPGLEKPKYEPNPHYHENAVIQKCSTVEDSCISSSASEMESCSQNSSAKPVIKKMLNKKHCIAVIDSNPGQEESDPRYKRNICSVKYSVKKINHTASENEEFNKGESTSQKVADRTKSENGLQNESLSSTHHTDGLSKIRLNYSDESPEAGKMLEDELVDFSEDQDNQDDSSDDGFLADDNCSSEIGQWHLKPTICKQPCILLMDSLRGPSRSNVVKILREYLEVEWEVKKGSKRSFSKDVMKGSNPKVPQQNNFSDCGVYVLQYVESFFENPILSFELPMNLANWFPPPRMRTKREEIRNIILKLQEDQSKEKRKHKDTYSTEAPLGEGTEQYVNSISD

[6] = target: T4, Sentrin-specific protease 8 (Homo sapiens, UniProt Q96LD8); assay type: functional;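 also: luminescence read-out of SENP8 inhibition, dose-response confirmation following an ultra-high-throughput screen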
T4 sequence (Q96LD8 whole entry): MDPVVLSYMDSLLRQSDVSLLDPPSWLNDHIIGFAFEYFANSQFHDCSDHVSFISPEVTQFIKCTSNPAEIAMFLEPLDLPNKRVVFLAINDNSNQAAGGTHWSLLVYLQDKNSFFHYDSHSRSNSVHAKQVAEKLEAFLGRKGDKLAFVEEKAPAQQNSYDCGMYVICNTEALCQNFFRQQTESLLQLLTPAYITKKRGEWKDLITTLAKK

[7] = inhibitors of firefly luciferase expression or activity, dose response, H4 neuroglioma cells, luminescence (AID 1990); assay type: functional, cell-based
[8] = luciferase reporter signal reduction – luminescence, H4-C neuroglioblastoma cells, dose response (AID 2458); assay type: functional, cell-based;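 also: H4 neuroglioblastoma cells stably carrying a luciferase reporter gene fusion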
[9] = system: Streptococcus sp. 'group A'; test: growth inhibition of control SK(-) GAS strain, dose response, counter-screen for streptokinase expression inhibitor project, luminescence, kanamycin, BacTiterGlo, confirmation (AID 1900); assay type: functional, organism-based
cells [10] = assay type: functional, cell-based
Beta-galactosidase [11] = target: T5, Beta-galactosidase (Escherichia coli, UniProt Q8VNN2); test: PubChem AID 485352; assay type: functional
T5 sequence (Q8VNN2 whole entry): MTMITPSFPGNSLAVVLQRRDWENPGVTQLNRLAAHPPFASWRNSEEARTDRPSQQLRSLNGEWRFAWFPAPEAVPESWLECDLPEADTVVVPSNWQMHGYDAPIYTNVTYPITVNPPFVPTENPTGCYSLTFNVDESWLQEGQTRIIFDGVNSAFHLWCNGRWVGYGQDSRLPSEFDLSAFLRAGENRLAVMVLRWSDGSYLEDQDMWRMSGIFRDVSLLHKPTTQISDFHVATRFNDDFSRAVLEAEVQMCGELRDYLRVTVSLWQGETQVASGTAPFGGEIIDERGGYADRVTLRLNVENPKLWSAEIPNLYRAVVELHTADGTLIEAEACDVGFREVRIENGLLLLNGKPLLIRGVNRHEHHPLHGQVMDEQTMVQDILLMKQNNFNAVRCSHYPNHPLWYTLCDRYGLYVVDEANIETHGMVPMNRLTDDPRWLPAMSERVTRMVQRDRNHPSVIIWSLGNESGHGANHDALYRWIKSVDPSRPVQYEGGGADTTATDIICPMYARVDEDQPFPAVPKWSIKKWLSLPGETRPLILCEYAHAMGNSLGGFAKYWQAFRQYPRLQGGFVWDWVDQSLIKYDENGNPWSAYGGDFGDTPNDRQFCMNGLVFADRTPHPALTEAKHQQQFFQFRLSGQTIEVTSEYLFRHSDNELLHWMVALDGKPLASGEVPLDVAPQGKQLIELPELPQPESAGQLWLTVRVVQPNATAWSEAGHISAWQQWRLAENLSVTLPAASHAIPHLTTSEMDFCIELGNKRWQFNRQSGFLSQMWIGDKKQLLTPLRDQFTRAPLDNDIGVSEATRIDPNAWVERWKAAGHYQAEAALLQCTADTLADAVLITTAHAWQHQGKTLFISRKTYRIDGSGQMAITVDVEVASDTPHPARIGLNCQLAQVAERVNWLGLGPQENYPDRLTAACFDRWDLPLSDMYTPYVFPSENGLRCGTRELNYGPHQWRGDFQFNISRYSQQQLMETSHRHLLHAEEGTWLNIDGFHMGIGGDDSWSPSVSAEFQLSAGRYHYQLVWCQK

[12] = inhibitors of SNCA 5'UTR-driven reporter translation, confirmation, H4 neuroglioma cells, luminescence (AID 1988); assay type: functional, cell-based
[13] = target: Type-1 angiotensin II receptor (Homo sapiens, UniProt P30556); test: AT1 receptor antagonists, dose response, selectivity assay for APJ receptor antagonist project, cell-based, uHTS hits (AID 463214); assay type: functional;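 also: antagonist potency against angiotensin II stimulated AT1 response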
[14] = target: T6, Kappa-type opioid receptor (Homo sapiens, UniProt P41145); assay type: functional
T6 sequence (P41145 whole entry): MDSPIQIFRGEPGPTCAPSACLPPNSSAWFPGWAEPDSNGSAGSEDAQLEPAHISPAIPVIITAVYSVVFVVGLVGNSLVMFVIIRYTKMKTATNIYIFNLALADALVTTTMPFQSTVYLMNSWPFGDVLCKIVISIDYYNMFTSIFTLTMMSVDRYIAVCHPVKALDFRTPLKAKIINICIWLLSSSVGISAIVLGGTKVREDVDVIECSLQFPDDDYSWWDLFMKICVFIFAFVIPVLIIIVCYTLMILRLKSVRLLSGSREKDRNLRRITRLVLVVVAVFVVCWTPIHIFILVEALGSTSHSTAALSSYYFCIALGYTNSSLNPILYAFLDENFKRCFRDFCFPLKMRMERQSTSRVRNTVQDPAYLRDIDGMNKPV

Beta-galactosidase [15] = target: T5, Beta-galactosidase; assay type: functional
[16] = target: T6, Kappa-type opioid receptor; assay type: functional; remark: listed apart in the source
Streptococcus = test: Group A Streptococcus viability loss, dose response, counter-screen for streptokinase expression inhibitor project, luminescence, BacTiterGlo (AID 1915); assay type: functional, organism-based;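 also: potency for reduction of bacterial viability or growth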
[17] = inhibitors of SNCA 5'UTR-driven translation, confirmation, luminescence, H4 neuroglioblastoma cells, dose confirmation (AID 2454); assay type: functional, cell-based;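 also: H4 neuroglioblastoma cells carrying an alpha-synuclein 5'UTR luciferase reporter; potency for inhibition of the luciferase signal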
[18] = THP-1 cell cytotoxicity, dose response, cytotoxicity control for non-replicating M. tuberculosis project (AID 489025); assay type: functional
[19] = HepG2 cell cytotoxicity, dose response, cytotoxicity control for non-replicating M. tuberculosis project (AID 489018); assay type: functional; conditions: Mycobacterium tuberculosis
[20] = Vero E6 cell cytotoxicity, dose response, cytotoxicity control for non-replicating M. tuberculosis project, secondary assay (AID 492998); assay type: functional, VeroE6; conditions: Vero C1008
Nonstructural protein 1 = Nonstructural protein 1 (Influenza A virus, UniProt Q194T2); assay type: functional, Influenza A virus (A/California/07/2009(H1N1))
Chain of Nonstructural protein 1 (Q194T2 whole entry): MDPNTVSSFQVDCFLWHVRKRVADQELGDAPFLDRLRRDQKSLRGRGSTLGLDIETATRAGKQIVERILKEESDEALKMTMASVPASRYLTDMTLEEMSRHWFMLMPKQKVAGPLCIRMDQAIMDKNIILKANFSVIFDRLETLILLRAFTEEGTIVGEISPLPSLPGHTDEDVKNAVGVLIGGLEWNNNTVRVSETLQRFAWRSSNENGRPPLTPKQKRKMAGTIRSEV

cells [21] = assay type: functional
Vero [22] = test: cells; assay type: functional, cell-based; conditions: Chlorocebus sabaeus
INS1 = test: beta cell apoptosis inhibitors, cytokine rescue, dose response, luminescence, retest (AID 449756); assay type: functional, cell-based; conditions: Rattus norvegicus;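 also: cell death triggered by IL-1 beta plus TNF-alpha plus IFN-gamma mixture; protective hits raise ATP signal compared with cytokine alone wells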
Vero [23] = test: cells; assay type: functional; conditions: Chlorocebus sabaeus
Beta-galactosidase [24] = target: T5, Beta-galactosidase; test: Dose response counterscreen for EBI2 assay utilizing the enzyme, b-galactosidase.; assay type: functional
Integrin alpha-L = Integrin alpha-L (Mus musculus, UniProt P24063); test: modulators of CD8 T cell-vesicle binding, dose response, powder samples, mouse 2C CD8+ cells (AID 504565); assay type: functional
Chain of Integrin alpha-L (P24063 whole entry): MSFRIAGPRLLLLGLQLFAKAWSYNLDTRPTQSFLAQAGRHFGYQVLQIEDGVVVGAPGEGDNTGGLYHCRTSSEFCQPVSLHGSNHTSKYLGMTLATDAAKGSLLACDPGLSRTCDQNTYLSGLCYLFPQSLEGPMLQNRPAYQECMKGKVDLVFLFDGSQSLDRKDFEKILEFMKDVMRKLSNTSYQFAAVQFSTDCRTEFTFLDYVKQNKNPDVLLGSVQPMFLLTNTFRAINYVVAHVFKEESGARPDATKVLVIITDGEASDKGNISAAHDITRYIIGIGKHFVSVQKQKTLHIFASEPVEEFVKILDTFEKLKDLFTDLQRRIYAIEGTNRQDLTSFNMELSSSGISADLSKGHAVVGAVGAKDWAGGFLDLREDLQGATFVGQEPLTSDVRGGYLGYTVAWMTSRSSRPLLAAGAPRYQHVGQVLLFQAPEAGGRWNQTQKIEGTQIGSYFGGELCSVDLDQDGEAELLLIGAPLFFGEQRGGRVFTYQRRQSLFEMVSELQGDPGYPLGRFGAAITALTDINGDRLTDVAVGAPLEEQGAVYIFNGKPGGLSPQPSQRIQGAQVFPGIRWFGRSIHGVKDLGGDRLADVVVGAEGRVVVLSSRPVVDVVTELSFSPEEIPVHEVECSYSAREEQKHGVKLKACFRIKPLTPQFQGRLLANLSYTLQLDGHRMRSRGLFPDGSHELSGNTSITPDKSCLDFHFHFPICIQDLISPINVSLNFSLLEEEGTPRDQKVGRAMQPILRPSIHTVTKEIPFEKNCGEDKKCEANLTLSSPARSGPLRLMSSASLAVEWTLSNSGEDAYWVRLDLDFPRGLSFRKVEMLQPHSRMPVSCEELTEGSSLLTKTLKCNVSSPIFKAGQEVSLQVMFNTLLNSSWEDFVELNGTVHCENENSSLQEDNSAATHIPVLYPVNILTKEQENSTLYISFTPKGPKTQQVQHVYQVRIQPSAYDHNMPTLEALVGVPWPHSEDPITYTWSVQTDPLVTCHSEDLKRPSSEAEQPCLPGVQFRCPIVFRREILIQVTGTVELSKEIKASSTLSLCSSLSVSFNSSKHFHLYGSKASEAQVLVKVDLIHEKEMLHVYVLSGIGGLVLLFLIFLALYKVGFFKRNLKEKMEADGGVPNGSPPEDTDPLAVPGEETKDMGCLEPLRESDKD

Importin subunit alpha-1 = Importin subunit alpha-1 (Homo sapiens, UniProt P52292); test: YIC FRET probe signal interference, dose response, counter-screen for RanGTP-importin-beta inhibitor project, biochemical, dry powder samples (AID 493094); assay type: functional
[25] = growth suppression of PTEN-null colon cells, dose response, cell-based, HCT116 PTEN knockout (AID 1047); assay type: functional;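 also: HCT116 colon tumor cells with PTEN knocked out; cells exposed to compound for 60 hours before readout; potency for loss of cell viability measured by luminescence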
[26] = growth suppression of beta-catenin-knockout colon cells, dose response, cell-based, HCT116, human colon tumor (AID 1045); assay type: functional;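 also: HCT116 colon tumor cells with beta catenin knocked out; cells exposed to compound for 60 hours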
[27] = target: 1-acylglycerol-3-phosphate O-acyltransferase ABHD5/Perilipin-5 (Homo sapiens, UniProt Q00G26+Q8WTS1); test: Luminescence-based biochemical high throughput dose response assay for inhibitors of the interaction of the lipase co-activator protein, abhydrolase domain containing 5 (ABHD5) with perilipin-5 (MLDP; PLIN5) (2K validation set). [Related pubchem assays (depositor defined):AID493035, AID493241]
Chain of 1-acylglycerol-3-phosphate O-acyltransferase ABHD5/Perilipin-5 (Q00G26 whole entry, the tested form may be a part): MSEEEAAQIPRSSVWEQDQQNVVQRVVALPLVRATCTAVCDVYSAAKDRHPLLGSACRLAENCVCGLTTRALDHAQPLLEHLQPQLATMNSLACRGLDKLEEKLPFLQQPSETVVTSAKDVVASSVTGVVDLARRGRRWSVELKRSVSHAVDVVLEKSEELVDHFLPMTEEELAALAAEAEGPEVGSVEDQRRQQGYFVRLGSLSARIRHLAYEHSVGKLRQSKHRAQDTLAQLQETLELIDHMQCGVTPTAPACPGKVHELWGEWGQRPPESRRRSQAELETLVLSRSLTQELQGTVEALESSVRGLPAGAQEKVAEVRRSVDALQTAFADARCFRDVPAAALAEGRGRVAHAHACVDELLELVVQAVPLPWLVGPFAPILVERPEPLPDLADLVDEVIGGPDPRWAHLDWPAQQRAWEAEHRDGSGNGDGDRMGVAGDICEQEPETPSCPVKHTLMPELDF
Chain of 1-acylglycerol-3-phosphate O-acyltransferase ABHD5/Perilipin-5 (Q8WTS1 whole entry, the tested form may be a part): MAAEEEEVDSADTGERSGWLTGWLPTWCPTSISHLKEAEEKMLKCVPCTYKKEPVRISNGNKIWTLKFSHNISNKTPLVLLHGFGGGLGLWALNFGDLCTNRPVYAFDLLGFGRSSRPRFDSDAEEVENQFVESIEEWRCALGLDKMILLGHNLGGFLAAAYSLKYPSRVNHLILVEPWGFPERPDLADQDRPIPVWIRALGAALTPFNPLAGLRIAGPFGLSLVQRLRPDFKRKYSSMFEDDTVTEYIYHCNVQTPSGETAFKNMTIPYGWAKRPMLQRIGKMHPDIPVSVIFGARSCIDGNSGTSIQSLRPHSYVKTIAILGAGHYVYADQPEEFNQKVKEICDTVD

Perilipin-1/ABHD5 = Perilipin-1/ABHD5 (Homo sapiens, UniProt O60240+Q8WTS1); test: Luminescence-based biochemical high throughput dose response assay for inhibitors of the interaction of the lipase co-activator protein, abhydrolase domain containing 5 (ABHD5) with perilipin-1 (PLIN1) (2K validation set). [Related pubchem assays (depositor defined):AID493027, AID493057]
Chain of Perilipin-1/ABHD5 (Q8WTS1 whole entry, the tested form may be a part): as above
Chain of Perilipin-1/ABHD5 (O60240 whole entry, the tested form may be a part): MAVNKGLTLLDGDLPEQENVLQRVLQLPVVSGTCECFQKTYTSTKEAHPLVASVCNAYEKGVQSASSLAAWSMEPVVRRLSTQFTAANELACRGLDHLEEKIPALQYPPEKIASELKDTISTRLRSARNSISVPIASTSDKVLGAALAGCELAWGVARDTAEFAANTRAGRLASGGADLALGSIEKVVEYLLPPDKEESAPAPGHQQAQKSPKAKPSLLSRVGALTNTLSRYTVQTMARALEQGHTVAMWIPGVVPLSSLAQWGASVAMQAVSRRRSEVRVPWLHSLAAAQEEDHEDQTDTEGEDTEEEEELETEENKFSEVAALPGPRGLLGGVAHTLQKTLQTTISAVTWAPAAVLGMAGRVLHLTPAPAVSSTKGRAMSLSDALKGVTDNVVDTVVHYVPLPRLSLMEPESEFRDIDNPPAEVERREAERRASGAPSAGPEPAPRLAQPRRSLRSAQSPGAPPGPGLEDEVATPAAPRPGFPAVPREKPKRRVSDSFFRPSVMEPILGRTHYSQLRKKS

[28] = target: T7, Heat shock factor protein 1 (Mus musculus, UniProt P38532); test: HSF1 potentiators in luciferase reporter cells, confirmation, cell-based, NIH3T3, luminescence, dose retest (AID 435004); assay type: functional;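 also: stress induced by proteasome inhibitor MG132 added 30 min after compound; luciferase reporter driven by HSF1 response element in NIH3T3 cells; actives raise luminescence as potentiators of the MG132 stress response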
T7 sequence (P38532 whole entry): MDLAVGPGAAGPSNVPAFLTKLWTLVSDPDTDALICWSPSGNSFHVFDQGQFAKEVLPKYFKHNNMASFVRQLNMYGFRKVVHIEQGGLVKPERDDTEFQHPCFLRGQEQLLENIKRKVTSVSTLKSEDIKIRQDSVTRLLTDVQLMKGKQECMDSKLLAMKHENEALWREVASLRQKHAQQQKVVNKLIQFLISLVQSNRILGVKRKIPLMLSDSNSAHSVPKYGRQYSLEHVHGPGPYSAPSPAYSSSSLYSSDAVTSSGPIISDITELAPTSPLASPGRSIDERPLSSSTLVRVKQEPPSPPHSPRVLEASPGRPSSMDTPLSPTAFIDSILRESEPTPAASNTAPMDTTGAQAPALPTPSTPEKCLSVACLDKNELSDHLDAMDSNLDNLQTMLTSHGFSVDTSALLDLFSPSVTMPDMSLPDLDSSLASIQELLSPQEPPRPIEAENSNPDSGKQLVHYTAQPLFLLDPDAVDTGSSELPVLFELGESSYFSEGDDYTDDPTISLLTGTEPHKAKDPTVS

Chain of DNA dC->dU-editing enzyme APOBEC-3A (P31941 whole entry): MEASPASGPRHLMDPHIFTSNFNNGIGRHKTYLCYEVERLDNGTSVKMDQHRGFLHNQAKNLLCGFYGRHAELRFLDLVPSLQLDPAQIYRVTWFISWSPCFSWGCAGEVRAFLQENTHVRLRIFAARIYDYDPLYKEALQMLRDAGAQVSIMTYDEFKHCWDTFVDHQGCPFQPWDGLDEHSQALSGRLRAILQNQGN

## CCc1c(C)nc(S)c(C#N)c1C
[1]
  IC50: > 100 µM (inactive)
[2]
  IC50: 6 µM (active)

## CCCCc1ccc(NC(=O)Nc2cccnc2)cc1
[3]
  EC50: 13.7 µM (active)
Caspase-3
  IC50: 22.7 µM (active)
[4]
  IC50: 5.08 µM (active)
[5]
  IC50: 14.1 µM (active)
[6]
  IC50: 16.8 µM (active)

## C/C(=N\NC(=O)c1cccc(Br)c1)c1ccccn1
[7]
  EC50: 30 µM (active)
[8]
  EC50: 0.714 µM (active)
[9]
  EC50: 1.29 µM (active)
Cells [10]
  EC50: 0.966 µM (active)
Beta-galactosidase [11]
  EC50: > 40 µM (inactive)
[12]
  EC50: < 0.1 µM (active)
[13]
  IC50: 3.51 µM (active)
[14]
  IC50: 1.82 µM (active)
Beta-galactosidase [15]
  EC50: > 31.5 µM (inactive)
[16]
  IC50: > 32 µM
Streptococcus
  EC50: 4.74 µM (active)
[17]
  EC50: 0.895 µM (active)
[18]
  CC50: 0.584 µM (active)
[19]
  CC50: 2.71 µM (active)
[20]
  CC50: 1.03 µM (active)
Nonstructural protein 1
  IC50: 1.67 µM (active)
Cells [21]
  IC50: 0.57 µM (active)
Vero [22]
  IC50: > 25 µM (active)
INS1
  AC50: 0.315 µM (active)
Vero [23]
  CC50: 1.78 µM (active)
Beta-galactosidase [24]
  IC50: > 80 µM (inactive)

## O=C(c1ccc(N2C(=O)C3CC=C(Cl)CC3C2=O)cc1)N1CCCCC1 (stereo unspecified)
Integrin alpha-L
  EC50: 9.02 µM (active)

## CSc1ccc(/C=C(/Sc2nnc(-c3ccccc3)o2)C(=O)O)cc1
Importin subunit alpha-1
  AC50: 116 µM (active)

## O=C(/C=C/Sc1ccccc1)c1ccccc1
[25]
  EC50: 27.7 µM (active)
[26]
  EC50: 28.4 µM (active)
[27]
  IC50: 3.91 µM (active)
Perilipin-1/ABHD5
  IC50: 3.91 µM (active)
[28]
  EC50: 5.83 µM (active)
Vero [23]
  CC50: 23.6 µM (active)
